Measured values reported in patent publication US11400132B2 (NOVALIQ GMBH, priority 2016, dated 2022).

Assay: Water solubility / residual water in 1-perfluorobutyl-pentane
Assay type: physicochemical
Details: based on weight of 1-perfluorobutylpentane
Description: The predominant contribution to residual water content in the composition can be attributed to water sorption or association with ciclosporin (e.g. not limited to, but for example derived from manufacturing process, or its transport and storage).
The 1-perfluorobutyl-pentane as featured in any of the compositions or methods described herein is preferably essentially free of water. In such case, the presence of residual water in the composition according to the invention is derived from the ciclosporin or optionally, if present, one or more excipients that is functionally not a co-solvent.

CCCCCC(F)(F)C(F)(F)C(F)(F)C(F)(F)F [F4H5, 1-perfluorobutyl-pentane]
water solubility in 1-perfluorobutylpentane: less than 1.20×10^−5 wt %
